Test results reported in patent US10508085B2, “Compounds and methods for IDO and TDO modulation, and indications therefor” (Plexxikon Inc., priority 2016, dated 2019).

How the values were obtained:
[1] = molecular target: T1, Human Indoleamine 2,3-dioxygenase (IDO) (Homo sapiens, UniProt P14902); assay: Human IDO enzymatic assay (kynurenine level); format: biochemical; conditions: 6 nM IDO, 10 μM L-Trp; geometric mean; read-out: IDO1 GMean: IC50 (μM) (Biochemical Assay)
T1 construct: His tag (N); made in house; host or cells: E. coli
T1 sequence (P14902 whole entry): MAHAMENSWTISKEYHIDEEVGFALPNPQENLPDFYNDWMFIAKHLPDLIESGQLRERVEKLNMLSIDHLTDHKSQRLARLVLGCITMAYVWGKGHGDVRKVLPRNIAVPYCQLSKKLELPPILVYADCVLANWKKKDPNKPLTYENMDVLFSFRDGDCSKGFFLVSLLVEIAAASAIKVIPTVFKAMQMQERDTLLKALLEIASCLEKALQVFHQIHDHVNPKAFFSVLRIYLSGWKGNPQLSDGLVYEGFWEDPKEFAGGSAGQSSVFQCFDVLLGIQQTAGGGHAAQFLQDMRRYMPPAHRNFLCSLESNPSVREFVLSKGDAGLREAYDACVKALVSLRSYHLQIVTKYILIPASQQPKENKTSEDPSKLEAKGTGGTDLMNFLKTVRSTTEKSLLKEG
Procedure, shortened: (§1)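 Reactions were stopped with TCA, converting N-formylkynurenine to kynurenine for quantitation, with IC50 by nonlinear regression. IDO: 6 nM enzyme, 10 μM L-Trp, 20 min RT. TDO: 1 nM enzyme, 350 μM L-Trp, 70 min RT, both in pH 6.5 buffer.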

[2] = molecular target: T2, human TDO (TDO-expressing HEK293 cells) (Homo sapiens, UniProt P48775); assay: Cell based kynurenine assay, TDO-expressing HEK293 cell clones; conditions: TDO-expressing HEK293 cells, 24 hours, geometric mean; read-out: HEK293 TDO Kynurenine GMean IC50 (μM) (Cellular Assay)
T2 construct: expressed in transfected cells
T2 sequence (P48775 whole entry): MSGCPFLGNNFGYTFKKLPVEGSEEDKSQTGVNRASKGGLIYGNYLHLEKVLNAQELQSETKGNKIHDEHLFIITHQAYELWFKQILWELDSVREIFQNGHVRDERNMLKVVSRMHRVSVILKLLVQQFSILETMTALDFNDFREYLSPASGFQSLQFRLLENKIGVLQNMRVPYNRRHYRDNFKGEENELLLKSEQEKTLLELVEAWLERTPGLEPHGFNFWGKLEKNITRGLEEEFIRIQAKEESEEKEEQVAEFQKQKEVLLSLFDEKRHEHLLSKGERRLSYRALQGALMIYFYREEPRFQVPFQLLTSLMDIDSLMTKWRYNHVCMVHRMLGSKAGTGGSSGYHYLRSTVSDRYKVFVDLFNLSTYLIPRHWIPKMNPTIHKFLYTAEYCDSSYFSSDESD
Procedure, shortened: (§2)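 Kynurenine in culture supernatant read after 24 h compound exposure of HEK293 cells stably expressing human IDO1 or TDO. IC50 from nonlinear regression of % inhibition relative to 0.2% DMSO cell (high) and media-only (low) controls.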

[3] = molecular target: T3, Human Tryptophan 2,3-dioxygenase (TDO) (Homo sapiens, UniProt P48775); assay: Human TDO enzymatic assay (kynurenine level); format: biochemical; conditions: 1 nM TDO, 350 μM L-Trp; geometric mean; read-out: TDO GMean: IC50 (μM) (Biochemical Assay)
T3 construct: His tag (N); made in house; host or cells: E. coli
T3 sequence (P48775 whole entry): as above
Procedure, shortened: as §1

[4] = molecular target: T4, human IDO (IDO1-expressing HEK293 cells) (Homo sapiens, UniProt P14902); assay: Cell based kynurenine assay, IDO1-expressing HEK293 cell clones; conditions: IDO1-expressing HEK293 cells, 24 hours, geometric mean; read-out: HEK293 IDO1 Kynurenine GMean IC50 (μM) (Cellular Assay)
T4 construct: expressed in transfected cells
T4 sequence (P14902 whole entry): as the sequence (P14902 whole entry) above
Procedure, shortened: as §2

SMILES | IC50 [1] | IC50 [2] | IC50 [3] | IC50 [4]
CC(C)CC(=O)N1CCC(C(C)(C)[C@H](O)c2cc(Cl)cc3cn[nH]c23)CC1 [Compound P-0545, (S)-1-(4-(1-(5-chloro-1H-indazol-7-yl)-1-hydroxy-2-methylpropan-2-yl)piperidin-1-y1)-3-methylbutan-1-one] | 0.0001 to 10 µM | 0.0001 to 10 µM | 0.0001 to 10 µM | 0.0001 to 10 µM
CC(C)(C1CCN(C(=O)C2CCOCC2)CC1)[C@H](O)c1cc(Cl)cc2cn[nH]c12 [Compound P-0546, (S)-(4-(1-(5-chloro-1H-indazol-7-yl)-1-hydroxy-2-methylpropan-2-yl)piperidin-1-yl)(tetrahydro-2H-pyran-4-yl)methanone] | 0.0001 to 10 µM | 0.0001 to 10 µM | 0.0001 to 10 µM | 0.0001 to 10 µM
CN(C)CC(=O)N1CCC(C(C)(C)[C@H](O)c2cc(Cl)cc3cn[nH]c23)CC1 [Compound P-0547, (S)-1-(4-(1-(5-chloro-1H-indazol-7-yl)-1-hydroxy-2-methylpropan-2-yl)piperidin-1-yl)-2-(dimethylamino) ethan-1-one] | 0.0001 to 10 µM | 0.0001 to 10 µM | 0.0001 to 10 µM | 0.0001 to 10 µM
CC(C)(C1CCN(C(=O)c2ccc(Cl)cn2)CC1)[C@H](O)c1cc(Cl)cc2cn[nH]c12 [Compound P-0548, (S)-(4-(1-(5-chloro-1H-indazol-7-yl)-1-hydroxy-2-methylpropan-2-yl)piperidin-1-yl)(5-chloropyridin-2-yl)methanone] | 0.0001 to 10 µM | 0.0001 to 10 µM | 0.0001 to 10 µM | 0.0001 to 10 µM
CCNC(=O)N1CCC(C(C)(C)[C@H](O)c2cc(Cl)cc3cn[nH]c23)CC1 [Compound P-0550, (S)-4-(1-(5-chloro-1H-indazol-7-yl)-1-hydroxy-2-methylpropan-2-yl)-N-ethylpiperidine-1-carboxamide] | 0.0001 to 10 µM | 0.0001 to 10 µM | 0.0001 to 10 µM | 0.0001 to 10 µM
CC(C)(C1CCN(C(=O)NC2CC2)CC1)[C@H](O)c1cc(Cl)cc2cn[nH]c12 [Compound P-0551, (S)-4-(1-(5-chloro-1H-indazol-7-yl)-1-hydroxy-2-methylpropan-2-yl)-N-cyclopropylpiperidine-1-carboxamide] | 0.0001 to 10 µM | 0.0001 to 10 µM | 0.0001 to 10 µM | 0.0001 to 10 µM
CC(C)(C1CCN(C(=O)NC2CCC2)CC1)[C@H](O)c1cc(Cl)cc2cn[nH]c12 [Compound P-0552, (S)-4-(1-(5-chloro-1H-indazol-7-yl)-1-hydroxy-2-methylpropan-2-yl)-N-cyclobutylpiperidine-1-carboxamide] | 0.0001 to 10 µM | 0.0001 to 10 µM | 0.0001 to 10 µM | 0.0001 to 10 µM
COCCCNC(=O)N1CCC(C(C)(C)[C@H](O)c2cc(Cl)cc3cn[nH]c23)CC1 [Compound P-0553, (S)-4-(1-(5-chloro-1H-indazol-7-yl)-1-hydroxy-2-methylpropan-2-yl)-N-(3-methoxypropyl) piperidine-1-carboxamide] | 0.0001 to 10 µM | 0.0001 to 10 µM | 0.0001 to 10 µM | 0.0001 to 10 µM
CC(C)(C1CCN(C(=O)Nc2cccnc2)CC1)[C@H](O)c1cc(Cl)cc2cn[nH]c12 [Compound P-0554, (S)-4-(1-(5-chloro-1H-indazol-7-yl)-1-hydroxy-2-methylpropan-2-yl)-N-(pyridin-3-yl)piperidine-1-carboxamide] | 0.0001 to 10 µM | 0.0001 to 10 µM | 0.0001 to 10 µM | 0.0001 to 10 µM
CC(C)(C1CCN(C(=O)NC(=O)c2ccccc2)CC1)[C@H](O)c1cc(Cl)cc2cn[nH]c12 [Compound P-0555, (S)-N-benzoyl-4-(1-(5-chloro-1H-indazol-7-yl)-1-hydroxy-2-methylpropan-2-yl)piperidine-1-carboxamide] | 0.0001 to 10 µM | 0.0001 to 10 µM | 0.0001 to 10 µM | 0.0001 to 10 µM
CC(C)(C1CCN(C(=O)NCCS(C)(=O)=O)CC1)[C@H](O)c1cc(Cl)cc2cn[nH]c12 [Compound P-0556, (S)-4-(1-(5-chloro-1H-indazol-7-yl)-1-hydroxy-2-methylpropan-2-yl)-N-(2-(methylsulfonyl)ethyl)piperidine-1-carboxamide] | 0.0001 to 10 µM | 0.0001 to 10 µM | 0.0001 to 10 µM | 0.0001 to 10 µM

The next lines start with the values.

IC50 [1] | IC50 [2] | IC50 [3] | IC50 [4] | SMILES
0.0001 to 10 µM | 0.0001 to 10 µM | 0.0001 to 10 µM | 0.0001 to 10 µM | CC(C)(C1CCN(C(=O)c2ccc(C(F)(F)F)nc2)CC1)[C@H](O)c1cc(Cl)cc2cn[nH]c12 [Compound P-0537, (S)-(4-(1-(5-chloro-1H-indazol-7-yl)-1-hydroxy-2-methylpropan-2-yl)piperidin-1-yl)(6-(trifluoromethyl)pyridin-3-yl)methanone]
0.0001 to 10 µM | 0.0001 to 10 µM | 0.0001 to 10 µM | 0.0001 to 10 µM | CC(C)(C1CCN(C(=O)c2ccc(N3CCOCC3)nc2)CC1)[C@H](O)c1cc(Cl)cc2cn[nH]c12 [Compound P-0538, (S)-(4-(1-(5-chloro-1H-indazol-7-yl)-1-hydroxy-2-methylpropan-2-yl)piperidin-1-yl)(6-morpholinopyridin-3-yl)methanone]
0.0001 to 10 µM | 0.0001 to 10 µM | 0.0001 to 10 µM | 0.0001 to 10 µM | CC(C)(C1CCN(C(=O)C2C(C)(C)C2(C)C)CC1)[C@H](O)c1cc(Cl)cc2cn[nH]c12 [Compound P-0539, (S)-(4-(1-(5-chloro-1H-indazol-7-yl)-1-hydroxy-2-methylpropan-2-yl)piperidin-1-yl)(2,2,3,3-tetramethylcyclopropyl) methanone]
0.0001 to 10 µM | 0.0001 to 10 µM | 0.0001 to 10 µM | 0.0001 to 10 µM | COC(=O)N1CCC(C(C)(C)[C@H](O)c2cc(Cl)cc3cn[nH]c23)CC1 [Compound P-0540, methyl (S)-4-(1-(5-chloro-1H-indazol-7-yl)-1-hydroxy-2-methylpropan-2-yl)piperidine-1-carboxylate]
0.0001 to 10 µM | 0.0001 to 10 µM | 0.0001 to 10 µM | 0.0001 to 10 µM | CCOC(=O)N1CCC(C(C)(C)[C@H](O)c2cc(Cl)cc3cn[nH]c23)CC1 [Compound P-0541, ethyl (S)-4-(1-(5-chloro-1H-indazol-7-yl)-1-hydroxy-2-methylpropan-2-yl)piperidine-1-carboxylate]
0.0001 to 10 µM | 0.0001 to 10 µM | 0.0001 to 10 µM | 0.0001 to 10 µM | CC(=O)N1CCC(C(C)(C)[C@H](O)c2cc(Cl)cc3cn[nH]c23)CC1 [Compound P-0542, (S)-1-(4-(1-(5-chloro-1H-indazol-7-yl)-1-hydroxy-2-methylpropan-2-yl)piperidin-1-yl)ethan-1-one]
0.0001 to 10 µM | 0.0001 to 10 µM | 0.0001 to 10 µM | 0.0001 to 10 µM | CCCC(=O)N1CCC(C(C)(C)[C@H](O)c2cc(Cl)cc3cn[nH]c23)CC1 [Compound P-0543, (S)-1-(4-(1-(5-chloro-1H-indazol-7-yl)-1-hydroxy-2-methylpropan-2-yl)piperidin-1-yl)butan-1-one]
0.0001 to 10 µM | 0.0001 to 10 µM | 0.0001 to 10 µM | 0.0001 to 10 µM | CC(C)C(=O)N1CCC(C(C)(C)[C@H](O)c2cc(Cl)cc3cn[nH]c23)CC1 [Compound P-0544, (S)-1-(4-(1-(5-chloro-1H-indazol-7-yl)-1-hydroxy-2-methylpropan-2-yl)piperidin-1-yl)-2-methylpropan-1-one]
